Laboratory results reported in US20020170078A1, “Calcineurin-related transgenic mammals, compositions and methods” (priority 2001, published 2002).

System: Schaffer collateral pathway to area CA1 of hippocampal slices
Assay: 1-train (100 Hz) LTP, field potential recordings in hippocampal slices
Type: cell-based, mouse

Structure (SMILES) | 1-train LTP, % baseline 30 min after tetanus [% baseline] | effect on 1-train LTP (control slices, 30 min pretreatment) | effect on the increased potentiation (enhanced 1-train LTP) (mutant slices) | effect on the enhanced LTP (100 uM, at least 20 min pretreatment, mutant slices)
CCCCCCOC(=O)[C@]1(O)C[C@@H]2O[C@@]1(C)n1c3ccccc3c3c4c(c5c6ccccc6n2c5c31)C(=O)NC4 [KT5720] | 134±6 | no effect | suppressed | –
NC(CCCP(=O)(O)O)C(=O)O (racemic) [DL-AP5] | – | – | – | abolished
